Where a name gives a salt, the structure may show the parent alone.
Tests used:
[1] = molecular target: T1, PARP-1 enzyme (Homo sapiens, UniProt P09874); experiment: Purified PARP-1 enzyme inhibition assay (Trevigen kit, 96 well ELISA plates); assay type: biochemical
T1 construct: purchased Trevigen, Gaithersburg, Md
Procedure: Effect of Tetracyclic 1H-indeno[1,2-b]pyridine-2(5H)-one analogs on PARP Activity in purified PARP-1 enzyme assay
The potency of inhibition on purified PARP-1 enzyme was subsequently determined for selected compounds, and the potency was compared with INO-1001. The assay was performed in 96 well ELISA plates according to instructions provided with a commercially available PARP-1 inhibition assay kit (Trevigen, Gaithersburg, Md.). Briefly, wells were coated with 1 mg/ml histone (50 μl/well) at 4° C. overnight. Plates were then washed four times with PBS and then blocked by adding 50 μl Strep-Diluent (supplied with the kit). After incubation (1 h, 25° C.), the plates were washed four times with PBS. Appropriate dilutions of compound was combined with 2×PARP cocktail (1.95 mM NAD^+, 50 μM biotinylated NAD^+ in 50 mM TRIS pH 8.0, 25 mM MgCl2) and high specific activity PARP enzyme (both were supplied with the kit) in a volume of 50 μl. The reaction was allowed to proceed for 30 min at room temperature. After 4 washes in PBS, incorporated biotin was detected by peroxidase-conjugated streptavidin (1:500 dilution) and TACS Sapphire substrate. EC50 and IC50 values were determined from a dose-response curve.

[2] = molecular target: T2, PARP (Mus musculus, UniProt P11103); experiment: PARP activity in cultured macrophages, whole-cell based assay (3H-NAD+ incorporation after hydrogen peroxide); conditions: murine RAW macrophages, 1 hour pretreatment, hydrogen peroxide 0.5 mM
T2 construct: PARP Activity in Cultured Macrophages, Using a Whole-Cell Based Assay; endogenous in cells; host or cells: murine RAW macrophages (ATCC)
Procedure: Effect of Tetracyclic 1H-indeno[1,2-b]pyridine-2(511)-one Analogs on PARP Activity in Cultured Macrophages, Using a Whole-Cell Based Assay
The murine RAW macrophages (ATCC, American Type Culture Collection, Manassas, Va.) were grown in […] (Invitrogen Life Technologies; Carlsbad, Calif.) medium supplemented with 10% heat-inactivated FBS, 2 mM L-glutamine, and 100 U/ml of penicillin and streptomycin. Cells, between passages 5 and 15, were seeded at a density of 250,000 cells/well in 12 well plates and allowed to grow 48 hours before use. Growth medium was changed on the day of use. Cells were treated with a tetracyclic 1H-indeno[1,2-b]pyridine-2(5H)-one analog diluted in a growth medium supplemented with 10% fetal bovine serum (FBS) for 1 hour prior to the addition of hydrogen peroxide (0.5 mM) for a further 25 minutes. For the measurement of PARP activity, media was removed and replaced with 0.5 ml of the assay buffer (56 mM HEPES-pH 7.5, 28 mM KCl, 28 mM NaCl, 2 mM MgCl2, 0.01% digitonin, and 0.5 μCi/ml of ^3H-NAD^+) for 20 minutes. After aspirating the assay buffer, cells were lysed and transferred to eppendorf tubes containing 250 μl of 50% ice-cold trichloroacetic acid (TCA), which were then placed at 4° C. for 4 hours. Samples were centrifuged at 10,000 g for 10 minutes and supernatant removed. The pellets were washed twice with 500 μl of ice-cold 5% w/v TCA. The pellets were then solubilized in 250 μl of NaOH (0.1 M) containing 2% SDS overnight at 37° C. and the PARP activity was then determined by measuring the radioactivity incorporated using a Wallac scintillation counter. The solubilized protein (250 μl) was mixed with 5 ml of scintillation fluid (ScintiSafe Plus, Fisher Scientific) before being counted for 3 minutes. EC50 values were determined from a dose-response curve.

T2 sequence (P11103 whole entry): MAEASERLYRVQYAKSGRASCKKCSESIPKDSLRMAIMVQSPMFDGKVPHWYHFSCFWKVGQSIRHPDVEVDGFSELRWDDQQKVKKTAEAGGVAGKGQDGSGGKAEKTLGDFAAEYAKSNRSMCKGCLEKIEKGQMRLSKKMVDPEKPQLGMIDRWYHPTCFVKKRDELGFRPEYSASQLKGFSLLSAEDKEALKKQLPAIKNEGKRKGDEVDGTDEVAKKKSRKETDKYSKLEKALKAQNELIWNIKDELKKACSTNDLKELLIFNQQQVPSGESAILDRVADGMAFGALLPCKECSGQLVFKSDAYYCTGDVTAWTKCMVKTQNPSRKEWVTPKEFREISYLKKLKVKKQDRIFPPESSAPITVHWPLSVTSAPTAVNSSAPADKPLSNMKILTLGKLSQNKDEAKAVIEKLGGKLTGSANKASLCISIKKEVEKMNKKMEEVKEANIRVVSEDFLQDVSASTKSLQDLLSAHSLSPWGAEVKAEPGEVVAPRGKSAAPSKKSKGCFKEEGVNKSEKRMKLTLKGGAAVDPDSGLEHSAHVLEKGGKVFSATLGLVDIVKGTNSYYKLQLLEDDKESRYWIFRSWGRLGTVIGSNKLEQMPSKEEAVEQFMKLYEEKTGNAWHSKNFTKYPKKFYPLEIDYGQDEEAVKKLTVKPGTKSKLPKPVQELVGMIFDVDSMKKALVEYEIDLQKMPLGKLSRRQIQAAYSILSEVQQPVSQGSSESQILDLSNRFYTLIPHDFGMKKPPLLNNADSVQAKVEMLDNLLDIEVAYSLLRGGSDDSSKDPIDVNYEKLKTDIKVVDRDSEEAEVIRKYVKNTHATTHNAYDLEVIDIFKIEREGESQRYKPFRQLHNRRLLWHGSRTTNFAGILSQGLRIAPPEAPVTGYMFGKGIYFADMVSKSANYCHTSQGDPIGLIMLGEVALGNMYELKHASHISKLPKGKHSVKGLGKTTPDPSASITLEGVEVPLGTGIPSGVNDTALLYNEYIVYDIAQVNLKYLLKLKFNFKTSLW
T1 sequence (P09874 whole entry): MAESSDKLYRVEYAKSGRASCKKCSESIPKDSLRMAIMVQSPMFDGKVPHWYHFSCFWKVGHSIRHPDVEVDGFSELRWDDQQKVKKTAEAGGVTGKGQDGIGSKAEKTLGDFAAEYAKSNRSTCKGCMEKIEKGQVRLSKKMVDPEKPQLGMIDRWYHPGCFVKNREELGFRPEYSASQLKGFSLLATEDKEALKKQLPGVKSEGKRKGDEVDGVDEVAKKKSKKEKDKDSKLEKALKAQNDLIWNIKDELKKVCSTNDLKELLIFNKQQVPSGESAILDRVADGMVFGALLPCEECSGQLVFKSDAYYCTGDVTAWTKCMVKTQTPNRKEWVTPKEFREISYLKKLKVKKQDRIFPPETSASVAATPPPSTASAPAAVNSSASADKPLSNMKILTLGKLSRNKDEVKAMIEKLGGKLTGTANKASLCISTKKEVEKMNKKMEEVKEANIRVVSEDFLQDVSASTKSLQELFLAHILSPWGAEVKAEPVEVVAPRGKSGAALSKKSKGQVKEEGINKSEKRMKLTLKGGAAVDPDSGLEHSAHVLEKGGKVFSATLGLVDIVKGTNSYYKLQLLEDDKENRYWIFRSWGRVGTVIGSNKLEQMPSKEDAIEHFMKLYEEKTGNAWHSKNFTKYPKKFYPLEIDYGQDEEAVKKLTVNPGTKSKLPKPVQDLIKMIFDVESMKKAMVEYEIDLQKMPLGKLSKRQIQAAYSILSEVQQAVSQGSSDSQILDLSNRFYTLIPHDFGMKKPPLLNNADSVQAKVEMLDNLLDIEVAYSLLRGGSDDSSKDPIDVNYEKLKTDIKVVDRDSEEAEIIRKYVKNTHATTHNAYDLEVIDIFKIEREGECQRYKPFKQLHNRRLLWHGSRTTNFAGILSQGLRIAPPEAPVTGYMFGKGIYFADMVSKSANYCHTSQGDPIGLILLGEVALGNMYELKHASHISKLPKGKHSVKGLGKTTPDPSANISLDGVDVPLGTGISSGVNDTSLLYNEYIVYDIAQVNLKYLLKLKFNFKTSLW

Question: For `CC1CCN(Cc2cccc3c2Cc2c-3[nH]c(=O)c3c2CCCC3)CC1` [Example 20, 10-((4-methylpiperidin-1-yl)methyl)-3,4,6,11-tetrahydro-1H-indeno[1,2-c]isoquinolin-5(2H)-one mesylate], which IC50 [1] is on record?
Answer: 5.2 nM

Question: What about the EC50 [2] of the same compound?
Answer: 4.1 nM

Question: How did the IC50 [1] turn out when `CCOC1CCN(Cc2cccc3c2Cc2c-3[nH]c(=O)c3c2CCCC3)CC1` [Example 9, 10-((4-ethoxypiperidin-1-yl)methyl)-3,4,6,11-tetrahydro-1H-indeno[1,2-c]isoquinolin-5(2H)-one] was run?
Answer: 93.9 nM

Question: What about the EC50 [2] of the same compound?
Answer: 12.7 nM

Question: How did the IC50 [1] turn out when `O=c1[nH]c2c(c3c1CCCC3)Cc1c(CNC3(CO)CCCC3)cccc1-2` [Example 50, 10-((1-(hydroxymethyl)cyclopentylamino)methyl)-3,4,6,11-tetrahydro-1H-indeno[1,2-c]isoquinolin-5(2H)-one] was run?
Answer: 6.3 nM

Question: What about the EC50 [2] of the same compound?
Answer: 5 nM

Question: What does the source list for `O=c1[nH]c2c(c3ncccc13)Cc1c-2cccc1N1CCN(CC2CC2)CC1` [Example 61, 10-(4-(cyclopropylmethyl)piperazin-1-yl)-6,11-dihydro-5H-indeno[1,2-h][1,6]naphthyridin-5-one]?
Answer: IC50 [1]: 27.9 nM; EC50 [2]: 46 nM

Question: Which results are given for `CCN1CCN(c2cccc3c2Cc2c-3[nH]c(=O)c3cccnc23)CC1` [Example 59, 10-(4-ethylpiperazin-1-yl)-6,11-dihydro-5H-indeno[1,2-h][1,6]naphthyridin-5-one]?
Answer: IC50 [1]: 12.4 nM; EC50 [2]: 2.4 nM

Question: Which IC50 [1] does the source give for `COCCN1CCN(c2cccc3c2Cc2c-3[nH]c(=O)c3c2CCCC3)CC1` [Example 43, 10-(4-(2-methoxyethyl)piperazin-1-yl)-3,4,6,11-tetrahydro-1H-indeno[1,2-c]isoquinolin-5(2H)-one] here?
Answer: 8.1 nM

Question: What about the EC50 [2] of the same compound?
Answer: 9 nM

Question: `CCCCN1CCN(c2cccc3c2Cc2c-3[nH]c(=O)c3cccnc23)CC1` [Example 58, 10-(4-butylpiperazin-1-yl)-6,11-dihydro-5H-indeno[1,2-h][1,6]naphthyridin-5-one] was tested. Which IC50 [1] did it give?
Answer: 25.5 nM

Question: What about the EC50 [2] of the same compound?
Answer: 6.1 nM

Question: With `CSCCC(=O)Nc1cccc2c1Cc1c-2[nH]c(=O)c2c1CCCC2` [Example 52, 3-(methylthio)-N-(5-oxo-2,3,4,5,6,11-hexahydro-1H-indeno[1,2-c]isoquinolin-10-yl)propanamide] as the compound, how does the IC50 [1] read?
Answer: 73.6 nM

Question: And the EC50 [2]?
Answer: 55 nM

Question: Which IC50 [1] does the source give for `C[C@@H]1CN(c2cccc3c2Cc2c-3[nH]c(=O)c3c2CCCC3)C[C@H](C)O1` [Example 32, 10-(2,6-dimethylmorpholino)-3,4,6,11-tetrahydro-1H-indeno[1,2-c]isoquinolin-5(2H)-one] here?
Answer: 23.1 nM

Question: What about the EC50 [2] of the same compound?
Answer: 100 nM

Question: What does the source list for `CC(C)N1CCN(c2cccc3c2Cc2c-3[nH]c(=O)c3cccnc23)CC1` [Example 60, 10-(4-isopropylpiperazin-1-yl)-6,11-dihydro-5,1-indeno[1,2-h][1,6]naphthyridin-5-one]?
Answer: IC50 [1]: 19.2 nM; EC50 [2]: 37 nM

Question: With `CC(C)(O)C(=O)Nc1cccc2c1Cc1c-2[nH]c(=O)c2c1CCCC2` [Example 51, 2-hydroxy-2-methyl-N-(5-oxo-2,3,4,5,6,11-hexahydro-1H-indeno[1,2-c]isoquinolin-10-yl)propanamide] as the compound, how does the IC50 [1] read?
Answer: > 250 nM

Question: What about the EC50 [2] of the same compound?
Answer: 59 nM

Question: How did the IC50 [1] turn out when `C[S+]([O-])CCC(=O)Nc1cccc2c1Cc1c-2[nH]c(=O)c2c1CCCC2` (centres unmarked) [Example 53, 3-(methylsulfinyl)-N-(5-oxo-2,3,4,5,6,11-hexahydro-1H-indeno[1,2-c]isoquinolin-10-yl)propanamide] was run?
Answer: 89.8 nM

Question: What about the EC50 [2] of the same compound?
Answer: 6 nM

Question: How did the IC50 [1] turn out when `O=c1[nH]c2c(c3c1CCCC3)Cc1c(CNC3CCCC3)cccc1-2` [Example 26, 10-((cyclopentylamino)methyl)-3,4,6,11-tetrahydro-1H-indeno[1,2-c]isoquinolin-5(2H)-one] was run?
Answer: 3.4 nM

Question: And the EC50 [2]?
Answer: 5 nM

Question: What does the source list for `O=c1[nH]c2c(c3ncccc13)Cc1c(CNC3CCCC3)cccc1-2` [Example 62, 10-((cyclopentylamino)methyl)-6,11-dihydro-5H-indeno[1,2-h][1,6]naphthyridin-5-one]?
Answer: IC50 [1]: 28.1 nM; EC50 [2]: 13 nM

Question: What does the source list for `COCCN1CCN(c2cccc3c2Cc2c-3[nH]c(=O)c3cccnc23)CC1` [Example 49, 10-(4-(2-methoxyethyl)piperazin-1-yl)-6,11-dihydro-5H-indeno[1,2-h][1,6]naphthyridin-5-one]?
Answer: IC50 [1]: 55.7 nM; EC50 [2]: 22.7 nM

Question: With `O=c1[nH]c2c(c3c1CCCC3)Cc1c(CN3CCC(N4CCCC4)CC3)cccc1-2` [Example 23, 10-((4-(pyrrolidin-1-yl)piperidin-1-yl)methyl)-3,4,6,11-tetrahydro-1H-indeno[1,2-c]isoquinolin-5(2H)-one] as the compound, how does the IC50 [1] read?
Answer: 12.7 nM

Question: And the EC50 [2]?
Answer: 20.9 nM

Question: `O=c1[nH]c2c(c3c1CCCC3)Cc1c(CN3CCCCC3)cccc1-2` [Example 2, 10-(piperidin-1-ylmethyl)-3,4,6,11-tetrahydro-1H-indeno[1,2-c]isoquinolin-5(2H)-one] was tested. Which IC50 [1] did it give?
Answer: 5.15 nM

Question: What about the EC50 [2] of the same compound?
Answer: 1.52 nM

Question: What does the source list for `O=c1[nH]c2c(c3c1CCCC3)Cc1c(CN3CC=CCC3)cccc1-2` [Example 69, 10-((5,6-dihydropyridin-1(2H)-yl)methyl)-3,4,6,11-tetrahydro-1H-indeno[1,2-c]isoquinolin-5(2H)-one]?
Answer: IC50 [1]: 54.7 nM; EC50 [2]: 18.4 nM

Question: Which IC50 [1] does the source give for `O=c1[nH]c2c(c3c1CCCC3)Cc1cc(CNCCN3CCOCC3)ccc1-2` [Example 45, 9-((2-morpholinoethylamino)methyl)-3,4,6,11-tetrahydro-1H-indeno[1,2-c]isoquinolin-5(2H)-one] here?
Answer: 5.5 nM

Question: What about the EC50 [2] of the same compound?
Answer: 25 nM

Question: Which results are given for `CCCN1CCN(c2cccc3c2Cc2c-3[nH]c(=O)c3c2CCCC3)CC1` [Example 41, 10-(4-propylpiperazin-1-yl)-3,4,6,11-tetrahydro-1H-indeno[1,2-c]isoquinolin-5(2H)-one]?
Answer: IC50 [1]: 6.3 nM; EC50 [2]: 45 nM

Question: What does the source list for `O=c1[nH]c2c(c3sccc13)Cc1c(CNC3CCCC3)cccc1-2` [Example 55, 9-((cyclopentylamino)methyl)-5,10-dihydro-4H-indeno[1,2-b]thieno[2,3-d]pyridin-4-one]?
Answer: IC50 [1]: 41.2 nM; EC50 [2]: 34 nM

Question: `O=c1[nH]c2c(c3c1CCCC3)Cc1c(CN3CCC(O)CC3)cccc1-2` [Example 1, 10-((4-hydroxypiperidin-1-yl)methyl)-3,4,6,11-tetrahydro-1H-indeno[1,2-c]isoquinolin-5(2H)-one] was tested. Which IC50 [1] did it give?
Answer: 3.83 nM

Question: What about the EC50 [2] of the same compound?
Answer: 11.3 nM

Question: Which IC50 [1] does the source give for `COCCNCc1ccc2c(c1)Cc1c-2[nH]c(=O)c2c1CCCC2` [Example 36, 9-((2-methoxyethylamino)methyl)-3,4,6,11-tetrahydro-1H-indeno[1,2-c]isoquinolin-5(2H)-one] here?
Answer: 8.9 nM

Question: And the EC50 [2]?
Answer: 50 nM

Question: How did the IC50 [1] turn out when `O=c1[nH]c2c(c3ccsc13)Cc1c(CNC3CCCC3)cccc1-2` [Example 48, 9-((cyclopentylamino)methyl)-5,10-dihydro-4H-indeno[1,2-b]thieno[3,2-d]pyridin-4-one] was run?
Answer: 27 nM

Question: What about the EC50 [2] of the same compound?
Answer: 10 nM

Question: Which results are given for `CN1CCN(c2cccc3c2Cc2c-3[nH]c(=O)c3cccnc23)CC1` [Example 56, 10-(4-methylpiperazin-1-yl)-6,11-dihydro-5H-indeno[1,2-d][1,6]naphthyridin-5-one]?
Answer: IC50 [1]: 19.9 nM; EC50 [2]: 9 nM
